Reference: patent EP0536419B1, “TRICYCLIC TRIAZOLE DERIVATIVES, PRODUCTION AND USE THEREOF” (TORAY INDUSTRIES, INC., priority 1991, dated 1992)
pIC50: −log10 of the molar value. Counter-ions that a name gives are not always drawn. Like-named read-outs stand apart in the source and are kept apart here.

Columns and labels:
[1] = tested on: PAF-induced Bronchial Hyperresponsiveness; experiment: PAF-induced bronchial hyperresponsiveness model in guinea pigs; type: in vivo; conditions: oral, ratio of Ach threshold value after/before PAF inhalation
Procedure: The test was carried out using Hartley male guinea pigs having body weights of 300 - 400 g.
Guinea pigs were retained on body plethysmo boxes without anesthesia and the respiratory resistances (Rrs) were determined by osscilation method. […] The Ach threshold value which is required for the Rrs to reach 1.5 cm H2O/ml/sec was determined. […] The Ach threshold value means the value calculated taking the value when a guinea pig is made to inhale 1000 ug/ml of Ach aerosol for 1 minute as 1 unit. The above-described operation was carried out using Animal Ast (registered trademark) commercially available from Chest M. I. Co., Ltd.
By the method of A), the bronchial responsiveness of guinea pigs, that is, the Ach threshold values were determined. Subsequently, each animal was made to inhale aerosol of 100 µg/ml of PAF solution for 10 minutes. Forty minutes after the completion of the inhalation, the bronchial responsiveness was again measured by the method of A). The bronchial hyperresponsiveness was detected based on the ratio between the Ach threshold value before and after the inhalation of PAF (Ach respiration threshold value after inhalation of PAF/Ach respiration threshold value before inhalation of […]; Post/Pre value). That is, if the bronchial hyperresponsiveness is strongly promoted, the Post/Pre value is lower than 1.0, and if it is not promoted, the Post/Pre value is about 1.0. A suspension of a test compound in olive oil was orally administered to each guinea pig and the determined Post/Pre value was compared with that of the control group to which olive oil was administered to evaluate the inhibition effect. […]

[2] = tested on: passive cutaneous anaphylaxis (PCA); experiment: Test for antiallergic action: rat passive cutaneous anaphylaxis (PCA) reaction; type: in vivo; conditions: rats, oral, 50 mg/kg in olive oil, 1 hour before antigen challenge, read-out: Inhibition Rate (%) Anti-PCA
Procedure: The antiallergic action was evaluated by passive cutaneous anaphylaxis (PCA) test using rats. The test was carried out using Wister male rats having body weights of 150 - 200 g. Physiological saline containing anti-dinitrophenyl group (DNP) mouse IgE monoclonal antibody (commercially available from Seikagaku Kogyo Co., Ltd.) was intracutaneously injected in the skin of the back of each rat. Twenty three hours later, a suspension of the test compound in olive oil was orally administered at a dose of 50 mg/kg to each rat. One hour later, 0.5 ml of physiological saline containing 2 mg/ml of ovalbumin modified with dinitrophenyl hapten and 1% Evans blue were administered to each rat via femoral vein. Thirty minutes later, the rat was killed by cutting the carotid artery. The skin was peeled off and the portion stained in blue was cut out. The cut out portion was minced in […] and the pigment was extracted at 60°C for 48 hours. The minced skin was removed by centrifugation (1500 x g, 10 min.) and the absorbance at 620 nm of the supernatant was measured. Based on a preliminarily prepared calibration curve, the pigment leaked to the topical portion was quantified. As a control, olive oil alone was administered and the ratio of the amount of the pigment in test groups to the amount of the pigment in control group is expressed as inhibition rate.

PAF receptor = biological target: T1, PAF receptor (Oryctolagus cuniculus, UniProt G1TEI7); experiment: Binding test using [3H]-PAF (PAF receptor binding test); parameters: species or system rabbit; conditions: for IC50: rabbit platelet membrane fraction, [3H]-PAF 0.4 nM, 25°C, 60 minutes, read-out: Receptor Binding Inhibition IC50 (converted)
T1 construct: Cell membrane fraction of rabbit platelets was prepared; from tissue; host or cells: rabbit platelets (cell membrane fraction)
T1 sequence (G1TEI7 1-342): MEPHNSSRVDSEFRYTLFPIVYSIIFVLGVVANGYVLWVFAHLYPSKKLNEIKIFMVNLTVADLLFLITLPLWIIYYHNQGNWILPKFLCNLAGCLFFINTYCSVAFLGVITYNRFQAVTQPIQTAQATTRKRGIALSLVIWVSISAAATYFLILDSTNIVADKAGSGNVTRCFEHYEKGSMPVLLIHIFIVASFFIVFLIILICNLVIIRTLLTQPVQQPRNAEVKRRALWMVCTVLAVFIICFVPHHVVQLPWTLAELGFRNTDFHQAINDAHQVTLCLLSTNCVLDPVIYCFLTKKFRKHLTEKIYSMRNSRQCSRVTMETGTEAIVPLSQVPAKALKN

rabbit platelets = rabbit platelets (Oryctolagus cuniculus, UniProt G1TEI7); experiment: in vitro platelet agglutination inhibition test (PAF-induced); type: cell-based; conditions: rabbit platelet-rich plasma, PAF final concentration 10 ng/ml, 37°C; read-out: PAF-Induced Platelet Aggregation IC50 (converted)
Chain of rabbit platelets (G1TEI7 1-342): as above
Procedure: To determine the PAF-antagonizing property of the compounds, the PAF-induced agglutination of rabbit platelets in vitro is utilized. To obtain platelet-rich plasma (PRP), venous blood is taken from rabbit auricular vein into a plastic centrifugal tube containing 1.0% sodium citrate solution. The ratio of sodium citrate solution to blood is 1:10. The obtained citrate-containing blood is centrifuged at 70 x g (625 rpm) at room temperature for 20 minutes and the PRP in the upper layer is transferred to another plastic tube. The remaining lower layer is further centrifuged at 1500 x g (2800 rpm) for 10 minutes and the platelet poor plasma (PPP) in the upper layer is recovered. The platelet agglutination is measured by using aggregometer commercially available from Niko Bioscience, Inc. An aliquote of the PRP is poured into a cubette for measurement. Immediately thereafter, aspirin, creatinin phosphate and creatinin phosphokinase are added to final concentrations of 0.1 mM, 7 mM and 45 U/ml, respectively. Then a solution of a test compound is added and the resulting mixture is stirred at 37°C for 2 minutes. To the resultant, PAF (final concentration: 10 ng/ml) is added to induce platelet aggregation. The platelet aggregation rate is calculated from the relative maximum value in each aggregation curve taking the transmittance of PPP as the maximum aggregation (100% aggregation). Using the aggregation rate when physiological saline was added as a control, the inhibition rate which was the ratio of the aggregation rate when the test compound was added to the control was calculated and the IC50 values were determined by interpolation.

histamine = experiment: Histamine-antagonizing action: histamine-induced skin pigment leakage in rats; type: in vivo; conditions: Rattus norvegicus, oral, 50 mg/kg in olive oil, 1 hour before intracutaneous histamine (50 µl of 900 µM), read-out: Inhibition Rate (%) Antihistamine
Procedure: A suspension of a test compound in olive oil was orally administered at a dose of 50 mg/kg to each rat of the same kind as those used in 1. One hour later, physiological saline containing 1% Evans blue was intravenously administered at a dose of 3 ml/kg. Immediately thereafter, 50 µl of 900 µM histamine solution was intracutaneously administered to each rat. Thirty minutes later, the pigment in the blue-stained portion in the skin was extracted and quantified as mentioned above. Using the amount of the pigment when olive oil was administered as control, the inhibition rate which is the ratio of the amount of the pigment when the test compound was administered to the control was calculated.

Row | Structure (SMILES) | Post/Pre ([1]; Dose 1 mg/kg) | inhibition at 50 mg/kg [2] | IC50 (PAF receptor) | Post/Pre ([1]; Dose 3 mg/kg) | pIC50 (PAF receptor) | IC50 (rabbit platelets) | inhibition at 50 mg/kg (histamine) | Post/Pre ([1]; Dose 0.1 mg/kg) | Post/Pre ([1]; Dose 0.3 mg/kg)
1 | Cc1nnc2n(CCCN3CCC(c4c[nH]c5ccccc45)CC3)c3ccccc3n12.O=C(O)/C=C/C(=O)O [Compound 192, 3-methyl-9-[3-[4-(3-indolyl)piperidin-1-yl]propyl]-9H-[1,2,4]triazolo[4,3-a]benzimidazole fumaric acid salt] | 1.81 | 74% | 1310 nM | – | – | – | – | – | –
2 | Cc1nnc2n1-c1sc(CCC(=O)N3CCOCC3)cc1C(c1ccccc1Cl)=NC2 [WEB2086, reference compound] | – | – | – | 0.89 | 6.96 | – | – | – | –
3 | Cc1nnc2n1-c1ccccc1N(CCCN1CCC(C(O)(c3ccc(F)cc3)c3ccc(F)cc3)CC1)C2 [Compound 75, 4,5-dihydro-1-methyl-5-[3-[4-[hydroxybis(4-fluorophenyl)methyl]piperidin-1-yl]propyl][1,2,4]triazolo[4,3-a] quinoxaline tartaric acid salt] | – | 42% | 603 nM | – | – | 309 nM | 19% | – | –
4 | Cc1nnc2n1-c1ccccc1N(CCCN1CCC(=C(c3ccccc3)c3ccccc3)CC1)C2 [Compound 46, 4,5-dihydro-1-methyl-5-[3-[4-(diphenylmethylene)piperidin-1-yl]propyl] [1,2,4]triazolo[4,3-a]quinoxaline] | – | 65% | 378 nM | – | – | – | 72% | 1.14 | 1.64
5 | Cc1nnc2c(=O)n(CCCN3CCC(=C(c4ccccc4)c4ccccc4)CC3)c3ccccc3n12 [Compound 4, 4,5-dihydro-1-methyl-5-[3-[4-(diphenylmethylene)piperidin-1-yl]propyl][1,2,4]triazolo[4,3-a] quinoxalin-4(5H)-one] | – | 44% | 2040 nM | – | – | 4080 nM | 76% | – | –
6 | Cc1nnc2n1-c1ccccc1N(CCCN1CCC(Nc3nc4ccccc4n3Cc3ccc(F)cc3)CC1)C2 [Compound 73, 4,5-dihydro-1-methyl-5-[3-[4-[1-(4-fluorobenzyl)benzimidazol-2-ylamino]-piperidin-1-yl]propyl][1,2,4]triazolo[4,3-a] quinoxaline] | 1.18 | – | 5630 nM | – | – | 8170 nM | – | – | –
7 | Cc1nnc2n1-c1ccccc1N(CCCN1CCC(c3c[nH]c4ccccc34)CC1)C2 [Compound 49, 4,5-dihydro-1-methyl-5-[3-[4-(3-indolyl)piperidine-1-yl]propyl] [1,2,4]triazolo[4,3-a]quinoxaline] | – | 58% | 3990 nM | – | – | – | 65% | – | –
8 | CCc1nnc2n1-c1ccccc1N(CCCN1CCC(c3c[nH]c4ccccc34)CC1)C2 [Compound 52, 1-ethyl-4,5-dihydro-5-[3-[4-(3-indolyl)piperidin-1-yl]propyl] [1,2,4]triazolo[4,3-a]quinoxaline] | 1.37 | 65% | 7940 nM | – | – | 12300 nM | 47% | – | –
9 | Cc1nnc2n1-c1ccccc1N(CCCN1CCN(C(c3ccc(F)cc3)c3ccc(F)cc3)CC1)C2 [Compound 45, 4,5-dihydro-1-methyl-5-[3-[4-[bis(4-fluorophenyl)methyl]piperazin-1-yl]propyl] [1,2,4]triazolo[4,3-a]quinoxaline] | – | 49% | 622 nM | – | – | – | 43% | – | –
10 | Cc1nnc2n(CCCN3CCC(C(O)(c4ccc(F)cc4)c4ccc(F)cc4)CC3)c3ccccc3n12 [Compound 199, 3-methyl-9-[3-[4-[hydroxybis(4-fluorophenyl)methyl]piperidin-1-yl]propyl]-9H-[1,2,4]triazolo[4,3-a]benzimidazole fumaric acid salt] | – | 48% | 55.4 nM | – | – | 190 nM | – | – | –
11 | Cc1nnc2n(CCCN3CCN(C(c4ccccc4)c4ccccc4)CC3)c3ccccc3n12 [Compound 189, 3-methyl-9-[3-[4-(diphenylmethyl)piperazin-1-yl]propyl]-9H-[1,2,4]triazolo[4,3-a]benzimidazole dihydrochloride] | – | 43% | 260 nM | – | – | 577 nM | 57% | – | –
12 | Cc1nnc2n1-c1ccccc1N(CCCN1CCN(C(c3ccccc3)c3ccc(Cl)cc3)CC1)CC2 (centres unmarked) [Compound 214, 5,6-dihydro-1-methyl-6-[3-[4-[(4-chlorophenyl)phenylmethyl]piperazin-1-yl]propyl]-4H[1,2,4]triazolo[4,3-a][1,5]benzodiazepine fumaric acid salt] | – | 75% | – | – | – | 6220 nM | – | – | –
